According to patent publication US4211772A, “Benzopyran glycoside acetals and ketals” (Laboratoires Sarget, priority 1977, dated 1980):
≈ marks a conversion by molar mass, not a printed value. Where two headings read alike, the source gives them in different places.

Tests used:
Solubilities in water = format: physicochemical; settings: for solubility: water, read-out: Solubilities in water
Aldose Reductase = target: T1, Aldose Reductase (Bos taurus, UniProt P16116); assay: Inhibition of aldose reductase in vitro (enzyme from beef eye lenses, glyceraldehyde substrate); format: biochemical; settings: in DMF solution, read-out: percentages of inhibition (aldose reductase); for inhibition at 100 µM: 10^-4 mole/l; for inhibition at 10 µM: 10^-5 mole/l
T1 construct: The enzyme is extracted from beef eye lenses; from tissue; host or cells: beef eye lenses
From the text: Inhibition of Aldose Reductase In Vitro
The reoxidation of NADPH coupled to the enzymatic reaction was followed spectrophotometrically at 340 nm.

carragenin edema = assay: Anti-inflammatory activity: carragenin edema test; format: in vivo; settings: Rattus norvegicus, ip, saturated bicarbonate solution, read-out: % inhibition of carragenin edema; for inhibition in vivo at 75 mg/kg: 75 mg/kg i.p.; for inhibition in vivo at 150 mg/kg: 150 mg/kg i.p.
Protocol: Anti-inflammatory activity
This was determined by the carragenin edema test using male Wistar EOPS rats. Inflammation was induced by the injection of 0.1 ml of a suspension of 5% carragenin in physiological serum into the muscular bundle of the metatarsal region of the posterior paw of the animal. The test substance was administered i.p. in neutralized solution at the same time as the carragenin.
Edema was measured by plethysmometry at different times after the administration of the carragenin.
Tables IV and V show the percentages of inhibition as a function of time and of dosage for certain compounds of the present invention.
The above results were obtained for solutions of substantially alkaline
The reference experiments were performed using physiological serum brough
to a pH approximately the same as the pH of the solutions to be tested.

galactosemic cataract = assay: Galactosemic cataract in rats; format: in vivo, weaning male EOPS Wistar rats; settings: 100 mg/kg/d i.p.
Protocol: GALACTOSEMIC CATARACT IN RATS
The study was conducted using weaning male EOPS Wistar rats having an initial weight of between 45 and 50 g. The animals were fed a high vitamin and high protein regimen containing 20% by weight of galactose. The first signs of cataracts, detected by the ophthalmoscope, appeared beginning with the third day. The animals received daily i.p. doses of the test compound, the treatment being started four days after the commencement of the galactosemic regimen. The evolution of the cataract was followed by the detection of maroon rings visible in the ophthalmoscope. These rings appeared on the external edge of the lens and progressed little by little to its center. Anatomopathological studies of the lenses confirmed that these brown rings correspond well to the characteristic histological lesions of galactosemic cataracts. Photographs taken with the aid of a retinograph facilitated the comparison of the evolution of the lesions.
Statistical calculations according to the .chi.^2 method permit an evaluation of the significance of the results obtained for each of the treatments compared to those for non-treated animals.

capillary resistance = assay: Capillaroprotecting effects: capillary resistance; format: in vivo, male OFA EOPS rats
Protocol: (§1) Capillaroprotecting effects
The capillary resistance was determined by a variant of the method of Charlier et al, Arch. Inter. Physiol.

capillary permeability = assay: Capillaroprotecting effects: capillary permeability; format: in vivo, conventional male Wistar rats
Protocol: as §1
The capillary permeability was determined by the method of Charlier et al, Arch. Inter. Physiol.

In the case of CC1(C)O[C@@H]2[C@@H](O)[C@H](OC[C@H]3O[C@@H](Oc4c(-c5ccc(O)c(O)c5)oc5cc(O)cc(O)c5c4=O)[C@H](O)[C@@H](O)[C@@H]3O)OC[C@@H]2O1 [No. 4, 3-O-(3,4-O,O-isopropylidene-6-α-L-arabinosyl-β-D-glucosyl)-quercetin], the solubility (Solubilities in water) is reported as 600 µg/mL (≈ 943 µM), the inhibition at 100 µM (Aldose Reductase) is reported as 42% and the inhibition at 10 µM (Aldose Reductase) is reported as 0%.

Work on O=c1ccc2cc(O[C@@H]3O[C@H](CO)[C@@H](O)[C@H](O)[C@H]3O)c(O)cc2o1 [Esculin, reference compound] yielded a solubility (Solubilities in water) of 1700 µg/mL (≈ 5000 µM) and an inhibition at 100 µM (Aldose Reductase) of 16%.

For O=c1c(O[C@@H]2O[C@H](CO)[C@@H](O)[C@H](O)[C@H]2O)c(-c2ccc(O)c(O)c2)oc2cc(O)cc(O)c12 [Isoquercitrin, reference compound], the Solubilities in water (Solubilities in water) was “insoluble”, the inhibition in vivo at 75 mg/kg (carragenin edema; 1/2 h) was 28% and the inhibition in vivo at 150 mg/kg (carragenin edema; 1/2 h) was 30%. For the same molecule, the inhibition in vivo at 75 mg/kg (carragenin edema; 1 h, 1 h) was 32%, the inhibition in vivo at 150 mg/kg (carragenin edema; 1 h, 1 h) was 40% and the inhibition in vivo at 75 mg/kg (carragenin edema; 2 h, 2 h) was 18%. For the same molecule, the inhibition in vivo at 150 mg/kg (carragenin edema; 2 h, 2 h) was 37%, the inhibition in vivo at 75 mg/kg (carragenin edema; 3 h, 3 h) was 28% and the inhibition in vivo at 150 mg/kg (carragenin edema; 3 h, 3 h) was 18%. It also gave an inhibition in vivo at 75 mg/kg (carragenin edema; 4 h, 4 h) of 22%, an inhibition in vivo at 150 mg/kg (carragenin edema; 4 h, 4 h) of 9% and an inhibition in vivo at 75 mg/kg (carragenin edema; 5 h, 5 h) of 23%. It also gave an inhibition in vivo at 150 mg/kg (carragenin edema; 5 h, 5 h) of 9%, an inhibition in vivo at 75 mg/kg (carragenin edema; 6 h, 6 h) of 25% and an inhibition in vivo at 150 mg/kg (carragenin edema; 6 h, 6 h) of 6%.

For O=c1c(O[C@@H]2O[C@H](CO[C@@H]3OC[C@H](O)[C@H](O)[C@H]3O)[C@@H](O)[C@H](O)[C@H]2O)c(-c2ccc(O)c(O)c2)oc2cc(O)cc(O)c12 [3-Vicianosyl quercetin, reference compound], the solubility (Solubilities in water) was 330 µg/mL (≈ 553 µM), the “percentage of animals which have not yet shown the appearance of cataracts” value (galactosemic cataract; day 0) was 100% and the “percentage of animals which have not yet shown the appearance of cataracts” value (galactosemic cataract; day 1) was 100%. The “percentage of animals which have not yet shown the appearance of cataracts” value (galactosemic cataract; day 2) was 97%, the “percentage of animals which have not yet shown the appearance of cataracts” value (galactosemic cataract; day 3) was 59% and the “percentage of animals which have not yet shown the appearance of cataracts” value (galactosemic cataract; day 4) was 40%. The “significance compared to non-treated animals (chi^2)” value (galactosemic cataract; day 4) was “S”, the “percentage of animals which have not yet shown the appearance of cataracts” value (galactosemic cataract; day 5) was 31% and the “significance compared to non-treated animals (chi^2)” value (galactosemic cataract; day 5) was “S”. For the same molecule, the “percentage of animals which have not yet shown the appearance of cataracts” value (galactosemic cataract; day 6) was 12%, the “significance compared to non-treated animals (chi^2)” value (galactosemic cataract; day 6) was “S” and the “percentage of animals which have not yet shown the appearance of cataracts” value (galactosemic cataract; day 10) was 9%. For the same molecule, the “percentage of animals which have not yet shown the appearance of cataracts” value (galactosemic cataract; day 12) was 19%, the “significance compared to non-treated animals (chi^2)” value (galactosemic cataract; day 12) was “S” and the “percentage of animals which have not yet shown the appearance of cataracts” value (galactosemic cataract; day 16) was 22%. For the same molecule, the “significance compared to non-treated animals (chi^2)” value (galactosemic cataract; day 16) was “S” and the “percentage of animals which have not yet shown the appearance of cataracts” value (galactosemic cataract; day -4) was 100%.

For CC1(C)OC[C@H]2O[C@@H](Oc3c(-c4ccc(O)c(O)c4)oc4cc(O)cc(O)c4c3=O)[C@H](O)[C@@H](O)[C@@H]2O1 [No. 5, 3-O-(4,6-O,O-isopropylidene-β-D-glucosyl)-quercetin], the “% of animals for which the effect is ≥ 25 u cm Hg/h” value (“% of animals” below) (capillary resistance; 50 mg/kg i.p.) was 60%, the “capillary resistance, effect observed” value (capillary resistance; 50 mg/kg i.p.) was 28 ± 9.8 u cm Hg/h and the “% of animals” value (capillary resistance; 100 mg/kg i.p.) was 80%. For the same molecule, the “capillary resistance, effect observed” value (capillary resistance; 100 mg/kg i.p.) was 32.25 ± 11.4 u cm Hg/h, the “% of animals” value (capillary resistance; 200 mg/kg i.p.) was 80% and the “capillary resistance, effect observed” value (capillary resistance; 200 mg/kg i.p.) was 37 ± 16.1 u cm Hg/h. For the same molecule, the solubility (Solubilities in water) was less than 100 µg/mL, the inhibition at 100 µM (Aldose Reductase) was 83% and the inhibition at 10 µM (Aldose Reductase) was 56%. The inhibition at 1 µM (Aldose Reductase; 10^-6 mole/l) was 0%, the “percentage reduction of capillary permeability” value (from here on “percentage reduction”) (capillary permeability; 50 mg/kg i.p.) was 11% and the “percentage reduction” value (capillary permeability; 100 mg/kg i.p.) was 34%. The “percentage reduction” value (capillary permeability; 200 mg/kg i.p.) was 28%.
